20 compounds from US20230043863A1, “HETEROAROMATIC DERIVATIVES FOR USE AS REGULATOR, PREPARATION METHOD THEREFOR AND USE THEREOF” (JIANGSU HANSOH PHARMACEUTICAL GROUP CO., LTD., priority 2018, published 2023) can be followed below.

One test has as its target JAK1 (Homo sapiens, UniProt P23458). The test is described as follows: JAK kinase activity inhibition, TR-FRET (JAK1). It is filed as biochemical. The following applies: TR-FRET kinase assay. The method, then: (§1) Experimental objective: The objective of this test is to test the inhibitory effect of the compound on JAK kinase activity.
(§2) Experimental method: the fluorescence resonance energy transfer (TR-FRET) method was used to test the inhibitory effect of the compound on JAK kinase activity, and the half inhibitory concentration IC50 of the compound on JAK kinase activity was obtained.
(§3) Kinase reaction was carried out in a white 384-well plate (PerkinElmer). 1-5 μL of different concentrations of the compound diluted with DMSO and ddH2O was added into each well, and 1-5 μL of the corresponding solvent was added to the positive control wells, followed by addition of 0.1-20 nM JAK kinase solution diluted with 1-5 μL of kinase buffer (HEPES 50-250 mM, MgCl2 5-20 mM, etc.) was added to each well. 1-5 μL of kinase buffer was added to the negative control well. 1-5 μL of substrate mixture containing peptide substrate and ATP was added. The plate was incubated at room temperature for 0.5-5 hours. […], EDTA and detection solution containing labeled antibody was added, and then the plate was incubated at room temperature for another 1-24 hours. The fluorescence signal value at about 620 nm and 665 nm of each well was measured by BioTek Synergy H1 plate reader, and the inhibition rate was calculated by the fluorescence signal value. According to the inhibition rate of different concentrations, the IC50 of the compound was obtained by curve fitting.
(§4) The percentage inhibition data of the wells treated with the compound was calculated with the positive control wells (DMSO control wells) and negative control wells (no kinase added) on the plate {% inhibition rate=100-[(test compound value-negative control value)]/(Positive control value-negative control value)×100}. IC50 value was calculated by using GraphPad prism to fit the data of different concentrations and corresponding percentage inhibition rates to a 4-parameter non-linear logic formula.

For another test, the target named is TYK2 (Homo sapiens, UniProt P29597). The test is described as follows: JAK kinase activity inhibition, TR-FRET (TYK2). The following applies: TR-FRET kinase assay. It is filed as biochemical. The procedure: as §1, §2, §3, §4
On the technique in general: Time-resolved FRET reads energy transfer from a long-lived donor to a nearby acceptor.

Test [1] relates to JAK-STAT signal pathway of U266 cells. The test is described as follows: Inhibition of cellular JAK-STAT signal pathway (STAT3 phosphorylation) in U266 cells. The following applies: Homo sapiens, U-266, INF-a 1000 U/mL stimulation. In kind it is cell-based, human. The procedure:
The objective of the test is to test the inhibitory activity of the compound on the cellular JAK-STAT signaling pathway.
U266 cell line was used in this experiment, by activating the JAK-STAT signaling pathway through INF-a stimulation, the inhibitory activity of the compound on its downstream STAT3 phosphorylation was detected, and the half inhibitory concentration IC50 of the compound on the JAK-STAT signaling pathway activity was obtained.
3-12 μL of U266 cell line was spread into the 384-well detection plate, and the number of cells in each well was 100-300 K, followed by addition of 2 μL of the compound solution serially diluted. The plate was incubated for 2 hours with shaking at 350 rpm at room temperature. After 2 hours, 2 μL of INF-a with a final concentration of 1000 U/mL was added. The plate was shaken at room temperature for 15 minutes. 2-5 μL (5×) LANCE Ultra Lysis Buffer 2 solution was added and the plate was shaken at room temperature for 2 hours. After 2 hours, 5 μL of LANCE Ultra Eu-labeled Anti-STAT3 Antibody (PerkinElmer) with a final concentration of 0.5 nM and LANCE Ultra ULight-labeled Anti-STAT3 Antibody (PerkinElmer) with a final concentration of 5 nM were added, and the plate was incubated overnight at room temperature. The fluorescence signal value at 665 nm of each well was measured with the microplate reader, and the inhibition rate was calculated from the fluorescence signal value. According to the inhibition rate of different concentrations, the IC50 of the compound was obtained by curve fitting.
as §4

pIC50: −log10 of the molar value.

JAK1, sequence (P23458 whole entry): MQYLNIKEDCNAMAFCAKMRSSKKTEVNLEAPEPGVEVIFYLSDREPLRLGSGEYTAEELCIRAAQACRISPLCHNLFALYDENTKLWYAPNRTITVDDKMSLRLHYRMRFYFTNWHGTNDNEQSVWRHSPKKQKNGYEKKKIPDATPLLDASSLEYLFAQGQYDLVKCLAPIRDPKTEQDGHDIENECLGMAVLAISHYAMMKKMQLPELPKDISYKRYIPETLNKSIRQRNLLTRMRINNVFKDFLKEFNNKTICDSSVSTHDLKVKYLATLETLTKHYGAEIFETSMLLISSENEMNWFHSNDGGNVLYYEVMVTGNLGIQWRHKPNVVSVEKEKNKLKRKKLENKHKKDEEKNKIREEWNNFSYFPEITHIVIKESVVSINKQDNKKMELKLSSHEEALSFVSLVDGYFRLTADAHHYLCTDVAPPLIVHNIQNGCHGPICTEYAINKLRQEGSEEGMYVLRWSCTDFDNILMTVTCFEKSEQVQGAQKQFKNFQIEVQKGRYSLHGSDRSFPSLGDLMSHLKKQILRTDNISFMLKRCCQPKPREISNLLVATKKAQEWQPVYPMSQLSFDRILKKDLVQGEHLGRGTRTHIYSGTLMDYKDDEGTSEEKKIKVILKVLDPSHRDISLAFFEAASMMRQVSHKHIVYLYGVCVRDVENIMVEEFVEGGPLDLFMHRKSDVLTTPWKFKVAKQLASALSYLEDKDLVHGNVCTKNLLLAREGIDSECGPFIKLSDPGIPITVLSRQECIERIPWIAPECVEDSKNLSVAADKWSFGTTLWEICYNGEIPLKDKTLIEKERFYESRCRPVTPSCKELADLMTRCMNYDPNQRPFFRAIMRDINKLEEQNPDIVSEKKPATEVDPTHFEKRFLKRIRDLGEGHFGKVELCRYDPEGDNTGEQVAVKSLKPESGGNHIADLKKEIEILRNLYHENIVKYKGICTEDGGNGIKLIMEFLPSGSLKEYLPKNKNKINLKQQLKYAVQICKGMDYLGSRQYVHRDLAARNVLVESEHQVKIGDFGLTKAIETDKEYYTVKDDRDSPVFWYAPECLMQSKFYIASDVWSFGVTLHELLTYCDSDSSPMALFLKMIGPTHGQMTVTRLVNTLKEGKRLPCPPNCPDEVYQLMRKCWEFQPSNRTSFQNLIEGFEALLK
TYK2, sequence (P29597 whole entry): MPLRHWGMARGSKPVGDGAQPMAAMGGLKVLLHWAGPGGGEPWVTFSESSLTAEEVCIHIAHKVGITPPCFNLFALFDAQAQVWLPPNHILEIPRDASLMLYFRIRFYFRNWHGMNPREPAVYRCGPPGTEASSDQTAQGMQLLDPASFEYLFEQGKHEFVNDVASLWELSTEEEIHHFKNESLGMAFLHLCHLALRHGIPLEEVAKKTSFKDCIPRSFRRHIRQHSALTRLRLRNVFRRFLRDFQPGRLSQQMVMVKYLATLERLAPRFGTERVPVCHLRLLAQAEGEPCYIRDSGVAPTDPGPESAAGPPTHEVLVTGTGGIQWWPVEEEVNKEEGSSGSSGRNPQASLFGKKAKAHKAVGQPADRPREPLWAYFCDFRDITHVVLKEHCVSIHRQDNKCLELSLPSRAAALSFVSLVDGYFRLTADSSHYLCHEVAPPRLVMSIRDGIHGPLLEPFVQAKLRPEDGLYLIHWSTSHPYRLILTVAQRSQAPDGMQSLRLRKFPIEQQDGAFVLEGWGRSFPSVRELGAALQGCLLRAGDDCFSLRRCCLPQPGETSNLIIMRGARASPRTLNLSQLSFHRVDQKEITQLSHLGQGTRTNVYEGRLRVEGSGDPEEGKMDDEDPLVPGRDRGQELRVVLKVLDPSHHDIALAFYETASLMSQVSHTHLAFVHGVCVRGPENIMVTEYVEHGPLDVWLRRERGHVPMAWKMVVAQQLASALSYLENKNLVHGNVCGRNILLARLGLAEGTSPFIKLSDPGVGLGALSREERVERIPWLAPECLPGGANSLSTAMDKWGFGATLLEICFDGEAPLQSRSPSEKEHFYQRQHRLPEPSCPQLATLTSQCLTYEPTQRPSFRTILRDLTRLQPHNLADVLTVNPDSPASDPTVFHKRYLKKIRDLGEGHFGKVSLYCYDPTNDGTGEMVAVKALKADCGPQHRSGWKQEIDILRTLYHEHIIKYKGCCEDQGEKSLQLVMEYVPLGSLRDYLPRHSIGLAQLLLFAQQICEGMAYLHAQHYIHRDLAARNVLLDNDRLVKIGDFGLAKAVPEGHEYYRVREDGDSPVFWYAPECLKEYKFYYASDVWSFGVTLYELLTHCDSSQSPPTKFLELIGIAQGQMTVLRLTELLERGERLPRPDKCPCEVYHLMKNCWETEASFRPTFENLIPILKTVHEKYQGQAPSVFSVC

The pIC50 is −log10 of the IC50, conventionally taken in molar units. For the compound `Cc1cc2nc(N[C@@H]3C[C@H]4CCC[C@@H](C3)N4CCC#N)nc(Nc3cc(CO)[nH]n3)c2s1` [Embodiment 294], the figures for the pIC50 (on JAK1; at TYK2; in test [1]) were 9.19, 9.64 and 7.82, respectively.
For `CN(c1nc(Nc2cc(CO)[nH]n2)c2ccc(Cl)cc2n1)[C@@H]1C[C@H]2CCC[C@@H](C1)N2CCC#N` [Embodiment 235, 3-((3-exo)-3-((7-chloro-4-((5-(hydroxymethyl)-1H-pyrazol-3-yl)amino)quinazolin-2-yl)(methyl)amino)-9-azabicyclo[3.3.1]non-9-yl)propionitrile] the same measures were 8.48, 8.57 and 7.35.
Regarding `Cc1cc(Nc2nc(N[C@@H]3C[C@H]4CC[C@@H](C3)N4CCC#N)nc3c(C)cccc23)n[nH]1` [Embodiment 176, 3-((3-exo)-3-((8-methyl-4-((5-methyl-1H-pyrazol-3-yl)amino)quinazolin-2-yl)amino)-8-azabicyclo[3.2.1]oct-8-yl)propionitrile], the negative logarithm of the IC50 (pIC50) was 8.38 at JAK1 and 8.63 at TYK2.
As to `O=C(CN1CCCCC1)N1[C@@H]2CC[C@H]1C[C@H](Nc1nc(Nc3ncc(CO)s3)cc3ncccc13)C2` [Embodiment 165, 1-((3-exo)-3-((7-((5-(hydroxymethyl)thiazol-2-yl)amino)-1,6-diazanaphthalen-5-yl)amino)-8-azabicyclo[3.2.1]oct-8-yl)-2-(piperidin-1-yl)ethane-1-one], the pIC50 was 8.31 on JAK1 and below 7.00 on TYK2.
For `Cc1cc(Nc2nc(N[C@@H]3C[C@H]4CC[C@@H](C3)N4S(=O)(=O)N3CC(C#N)C3)nc3cc(C4CC4)ccc23)n[nH]1` [Embodiment 216, 1-(((3-exo)-3-((7-cyclopropyl-4-((5-methyl-1H-pyrazol-3-yl)amino)quinazolin-2-yl)amino)-8-azabicyclo[3.2.1]oct-8-yl)sulfonyl)azetindin-3-formonitrile] the same measures were 10.40 and 9.32.
With `Cc1cc(Nc2nc(N[C@@H]3C[C@H]4CC[C@@H](C3)N4CCC#N)c3ccccc3n2)n[nH]1` [Embodiment 87, 3-((3-exo)-3-((2-((5-methyl-1H-pyrazol-3-yl)amino)quinazolin-4-yl)amino)-8-azabicyclo[3.2.1]oct-8-yl)propionitrile], the pIC50 at JAK1 was 7.45; at TYK2 it was below 7.00.
For `N#CCCN1[C@@H]2CC[C@H]1C[C@H](Nc1nc(Nc3ncc(C(N)=O)s3)cc3ncccc13)C2` [Embodiment 35, 2-((5-(((3-exo)-8-(2-cyanoethyl)-8-azabicyclo[3.2.1]oct-3-yl)amino)-1,6-diazanaphthalen-7-yl)amino)thiazol-5-formamide] the same measures were 8.25 and 7.65.
For `COc1cncc(-c2ccc3c(Nc4cc(C)[nH]n4)nc(N[C@@H]4C[C@H]5CC[C@@H](C4)N5CCC#N)nc3c2)c1` [Embodiment 182] the same measures were 9.43 and 9.60.
As for `Cc1cc(Nc2nc(N[C@@H]3C[C@H]4CC[C@@H](C3)N4C(=O)CN(C)C)nc3ccccc23)n[nH]1` [Embodiment 225, 2-(dimethylamine)-1-((3-exo)-3-((4-((5-methyl-1H-pyrazol-3-yl)amino)quinazolin-2-yl)amino)-8-azabicyclo[3.2.1]oct-8-yl)ethane-1-one], the values for the pIC50 on JAK1 and on TYK2 were 8.04 and 9.03, respectively.
With `Cc1cc(Nc2nc(N[C@@H]3C[C@H]4CC[C@@H](C3)N4CCC#N)nc3cccc(Cl)c23)n[nH]1` [Embodiment 175, 3-((3-exo)-3-((5-chloro-4-((5-methyl-1H-pyrazol-3-yl)amino)quinazolin-2-yl)amino)-8-azabicyclo[3.2.1]oct-8-yl)propionitrile], the pIC50 at JAK1 is below 7.00; at TYK2 it was 7.37.
As for `CN(c1nc(Nc2cc(CO)[nH]n2)c2ccc(Cl)cc2n1)[C@@H]1C[C@H]2CC[C@@H](C1)N2CCC#N` [Embodiment 236, 3-((3-exo)-3-((7-chloro-4-((5-(hydroxymethyl)-1H-pyrazol-3-yl)amino)quinazolin-2-yl)(methyl)amino)-8-azabicyclo[3.2.1]oct-8-yl)propionitrile], the pIC50 is 8.06 on JAK1 and 8.32 at TYK2.
`Cc1cc(Nc2nc(N[C@@H]3C[C@H]4CC[C@@H](C3)N4CCF)nc3ccccc23)n[nH]1` [Embodiment 234]: the pIC50 was 6.95 at JAK1 and 8.15 on TYK2.
`COCCS(=O)(=O)N1[C@@H]2CC[C@H]1C[C@H](Nc1nc(Nc3cc(C)[nH]n3)c3ccccc3n1)C2` [Embodiment 233, N2-((3-exo)-8-((2-methoxylethyl)sulfonyl)-8-azabicyclo[3.2.1]oct-3-yl)-N4-(5-methyl-1H-pyrazol-3-yl)quinazolin-2,4-diamine]: the results for the pIC50 on JAK1 and on TYK2 were 8.45 and 8.68, respectively.
For `O=C(CN1CCCC1)N1[C@@H]2CCC[C@H]1C[C@H](Nc1nc(Nc3ncc(CO)s3)cc3ncccc13)C2` [Embodiment 164, 1-((3-exo)-3-((7-((5-(hydroxymethyl)thiazol-2-yl)amino)-1,6-diazanaphthalen-5-yl)amino)-9-azabicyclo[3.3.1]non-9-yl)-2-(pyrrolidin-1-yl)ethane-1-one] the same measures were 9.07 and 7.78.
Consider `Cc1cc(Nc2nc(N[C@@H]3C[C@H]4CC[C@@H](C3)N4C(=O)c3cccnc3)nc3ccccc23)n[nH]1` [Embodiment 227, ((3-exo)-3-((4-((5-methyl-1H-pyrazol-3-yl)amino)quinazolin-2-yl)amino)-8-azabicyclo[3.2.1]oct-8-yl)(pyridin-3-yl)methanone], for which the pIC50 was 8.29 on JAK1 and 8.32 on TYK2.
For `N#CCCN1[C@@H]2CC[C@H]1C[C@H](Nc1nc(Nc3ncc(C#N)s3)cc3ncccc13)C2` [Embodiment 160, 2-((5-(((3-exo)-8-(2-cyanoethyl)-8-azabicyclo[3.2.1]oct-3-yl)amino)-1,6-diazanaphthalen-7-yl)amino)thiazol-5-formonitrile] the same measures were 7.93 and 8.21.
For `Cc1cc(Nc2nc(N[C@@H]3C[C@H]4CC[C@@H](C3)N4CCC#N)c3cccnc3n2)n[nH]1` [Embodiment 90, 3-((3-exo)-3-((2-((5-methyl-1H-pyrazol-3-yl)amino)pyrido[2,3-d]pyrimidin-4-yl)amino)-8-azabicyclo[3.2.1]oct-8-yl)propionitrile] the same measures were 8.14 and 7.67.
For `Cn1cnc(Nc2cc3ncccc3c(N[C@@H]3C[C@H]4CC[C@@H](C3)N4CCC#N)n2)c1` [Embodiment 25, 3-((3-exo)-3-((7-((1-methyl-1H-imidazol-4-yl)amino)-1,6-diazanaphthalen-5-yl)amino)-8-azabicyclo[3.2.1]oct-8-yl)propionitrile] the same measures were 8.79 and 8.34.
As to `COc1ccc(-c2ccc3c(Nc4cc(C)[nH]n4)nc(N[C@@H]4C[C@H]5CC[C@@H](C4)N5CCC#N)nc3c2)cn1` [Embodiment 183, 3-((3-exo)-3-((7-(6-methoxylpyridin-3-yl)-4-((5-methyl-1H-pyrazol-3-yl)amino)quinazolin-2-yl)amino)-8-azabicyclo[3.2.1]oct-8-yl)propionitrile], the pIC50 is 9.74 on JAK1 and 10.00 on TYK2.
For `Cc1cc(Nc2nc(N[C@@H]3C[C@H]4CC[C@@H](C3)N4CCC#N)nc3cc(-c4cnn(C5CC5)c4)ccc23)n[nH]1` [Embodiment 185, 3-((3-exo)-3-((7-(1-cyclopropyl-1H-pyrazol-4-yl)-4-((5-methyl-1H-pyrazol-3-yl)amino)quinazolin-2-yl)amino)-8-azabicyclo[3.2.1]oct-8-yl)propionitrile] the same measures were 9.54 and 9.22.
